Experiments:
[1] = biological target: T1, murine Syk tyrosine kinase protein (GST:Syk 6-242) (Mus musculus, UniProt P48025); experiment: ADA method: displacement of the binding of scFv G4G11 with Syk (ELISA); details: for inhibition at 10 µM: small molecules at 10 μM, scFv G4G11 100 nM, read-out: In vit. inhib.: mean inhibition % of the binding of scFv G4G11 with Syk in the ADA method
T1 construct: made in house
In short: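 GST:Syk 6-242 (murine) was immobilised at 10 μg ml^−1 and pre-incubated 1 h at ambient temperature with compounds at 10 μM final in PBS. scFv G4G11 was then added at 100 nM for 1 h. Bound scFv was detected via its C-terminal c-myc tag with HRP-9E10, and % inhibition was taken from signals with versus without compound.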

[2] = biological target: T2, Syk protein (UniProt P48025); experiment: In vitro affinity for Syk by fluorescence spectroscopy (spectrofluorometry); assay type: binding; details: read-out: Kd: dissociation constant with respect to Syk
T2 construct: none given for this test; fused on or other part: probably GST at the N-terminus (GST:Syk 6-242), if the ADA protein was also used here
Protocol: The dissociation constant of the molecules according to the invention with respect to Syk protein may particularly be measured in vitro by means of fluorescence spectroscopy (or spectrofluorometry).
Finally, the in vitro affinity of the molecule C-13 and some of the 87 molecules mentioned above for Syk protein was measured by means of fluorescence spectroscopy (or spectrofluorometry) and is expressed by the dissociation constant (or Kd) in μmole/liter (μM).

| Compound | inhibition at 10 µM [1] [%] | Kd [2] [µM] | IC50 ([1]; ADA method, read-out: estimated IC50 for competing with the binding of scFv G4G11 with Syk) [µM] |
| --- | --- | --- | --- |
| COc1cc(-c2nnc(SCC(=O)Nc3ccc(Cl)cc3)n2CCc2ccccc2)cc(OC)c1OC [Molecule 59] | 40 | 8.2 | – |
| C=CCn1c(CNC(=O)c2cccc(C)c2)cnc1SCC(=O)Nc1cccc(C(=O)OC(C)C)c1 [Molecule 75] | 27 | 4.8 | – |
| CCn1c(CCC(=O)c2ccc(Cl)cc2)nnc1SCC(=O)Nc1ccc(Br)c(C)c1C [Molecule 82] | 20 | 3.2 | – |
| Cc1cc(C(=O)Nc2ccccc2C(=O)O)ccc1NC(=O)COc1ccc(C(C)C)cc1 [Molecule 49, 2-[(4-{[(4-isopropylphenoxy)acetyl]amino}-3-methylbenzoyl)amino] benzoic acid] | 46.5 | 5.5 | – |
| CCOC(=O)c1ccc(NC(=O)CSc2nnc(-c3ccco3)c(-c3ccco3)n2)cc1 [Molecule 54, ethyl 4-({[(5,6-di-2-furyl-1,2,4-triazin-3-yl)thio]acetyl}amino)benzoate] | 43 | 1.6 | – |
| COc1ccc(C)cc1NC(=O)c1ccc(CN2CCC(Cc3ccccc3)CC2)cc1 [Molecule 17, 4-[(4-benzyl-1-piperidinyl)methyl}-N-(2-methoxy-5-methylphenyl)benzamide] | 63 | 17.9 | – |
| O=C(NCc1nnc(NCc2nc3ccccc3c(=O)[nH]2)n1-c1ccccc1)c1ccccc1F [Molecule 29] | 53.5 | 6.7 | – |
| COc1ccc(S(=O)(=O)N(CCc2ccccc2)CC(=O)Nc2ccc(C(N)=O)cc2)cc1 [Molecule 18] | 63 | 0.8 | – |
| CCOC(=O)C1=C(C)NC2=C(C(=O)c3ccccc32)C1c1cc(Br)ccc1OCC(=O)O (centres unmarked) [Molecule 3, {4-bromo-2-[3-(ethoxy carbonyl)-2-methyl-5-oxo-4,5-dihydro-1H-indeno[1,2-b]pyridin-4-yl]phenoxy} acetic acid] | 81 | 6.2 | – |
| CCOC(=O)c1ccc(NC(=O)CC2C(=O)N(c3ccc(Cl)cc3)C(=S)N2Cc2cccnc2)cc1 (centres unmarked) [Molecule 61] | 39.5 | 21.8 | – |
| COc1cccc(C2C(C(=O)c3ccc(C)cc3)=C(O)C(=O)N2CCCN2CCOCC2)c1 (centres unmarked) [Molecule 4, 3-hydroxy-5-(3-methoxyphenyl)-4-(4-methylbenzoyl)-1-[3-(4-morpholinyl)propyl]-1,5-dihydro-2H-pyrrol-2-one] | 79.5 | 9.4 | – |
| O=C(C1=C(O)C(=O)N(Cc2cccnc2)C1c1cccc(Oc2ccccc2)c1)c1ccc(Cl)cc1 (centres unmarked) [Molecule 1, 4-(4-chlorobenzoyl)-3-hydroxy-5-(3-phenoxyphenyl)-1-(3-pyridinylmethyl)-1,5-dihydro-2H-pyrrol-2-one] | 86.5 | 5 | – |
| CCOC(=O)c1sc(N2C(=O)C(O)=C(C(=O)c3ccc(F)cc3)C2c2ccc(C)cc2)nc1C (centres unmarked) [Molecule 10, ethyl 2-[3-(4-fluorobenzoyl)-4-hydroxy-2-(4-methylphenyl)-5-oxo-2,5-dihydro-1H-pyrrol-1-yl]-4-methyl-1,3-thiazole-5-carboxylate] | 71 | 6.3 | – |
| COC(=O)c1ccccc1-c1ccc(/C=C2/SC(=S)N(Cc3ccccc3)C2=O)o1 [Molecule C-13, methyl 2-{5-[(3-benzyl-4-oxo-2-thioxo-1,3-thiazolidin-5-ylidene)methyl]-2-furyl}benzoate] | 81 | 4.8 ± 0.2 | ~4 |
| C=CCn1c(SCC(=O)Nc2cccc(OC)c2)nnc1C(C)NC(=O)c1ccccc1 (centres unmarked) [Molecule 66, N-{1-[4-allyl-5-({2-[(3-methoxyphenyl)amino]-2-oxoethyl}thio)-4H-1,2,4-triazol-3-yl]ethyl} benzamide] | 35 | 8 | – |
| CCOC(=O)c1ccc(N2C(=O)C(O)=C(C(=O)c3ccccc3)C2c2ccc(ON)cc2OC)cc1 (centres unmarked) [Molecule 6] | 73.5 | 6.1 | – |
| CCOc1ccc(NC(=O)CC2C(=O)N(c3ccc(OC)cc3)C(=S)N2CCN2CCOCC2)cc1 (centres unmarked) [Molecule 84, N-(4-ethoxyphenyl)-2-{1-(4-methoxyphenyl)-3-[2-(4-morpholinyl)ethyl]-5-oxo-2-thioxo-4-imidazolidinyl}acetamide] | 19 | 15.6 | – |
| COc1ccc(C2C(C(=O)c3cccs3)=C(O)C(=O)N2CCCn2ccnc2)c(OC)c1 (centres unmarked) [Molecule 2] | 81 | 16.3 | – |
| COc1ccccc1C(=O)Nc1ccc(-c2nnc(SCC(=O)c3ccccc3)n2C)cc1 [Molecule 15, 2-methoxy-N-(4-(4-methyl-5-[(2-oxo-2-phenylethyl)thio]-4H-1,2,4-triazol-3-yl)phenyl)benzamide] | 67.5 | 5.6 | – |
| O=C(Nc1ccccc1)c1ccc(NCCN2CCOCC2)c(S(=O)(=O)N2CCOCC2)c1 [Molecule 46, 4-{[2-(4-morpholinyl)ethyl]amino}-3-(4-morpholinylsulphonyl)-N-phenylbenzamide] | 48 | 3 | – |
